Test results published in ChEMBL document CHEMBL4270495, “Oleanane-, ursane-, and quinone methide friedelane-type triterpenoid derivatives: Recent advances in cancer treatment” (Eur J Med Chem, 2017).

Columns and labels:
HeLa [1] = assay: Cytotoxicity in human HeLa cells assessed as reduction in cell viability incubated for 24 hrs by MTT assay; format: functional, cell-based
HepG2 [2] = assay: Cytotoxicity in human HepG2 cells assessed as reduction in cell viability incubated for 24 hrs by MTT assay; format: functional, cell-based; conditions: HepG2, 24 h
AGS = assay: Cytotoxicity in human AGS cells assessed as reduction in cell viability incubated for 24 hrs by MTT assay; format: functional, cell-based
[3] = Cytotoxicity in human HELF cells assessed as reduction in cell viability incubated for 24 hrs by MTT assay; format: cell-based
EA.hy 926 = assay: Cytotoxicity in human EAhy926 cells assessed as reduction in cell viability incubated for 72 hrs by MTT assay; format: cell-based; conditions: EA.hy 926, 72 h
HT-29 [4] = assay: Cytotoxicity in human HT-29 cells assessed as reduction in cell viability incubated for 72 hrs by MTT assay; format: functional, cell-based; conditions: HT-29, 72 h
H9c2 = assay: Cytotoxicity in rat H9c2 cells assessed as reduction in cell viability incubated for 72 hrs by MTT assay; format: cell-based; conditions: H9c2, 72 h
HeLa [5] = assay: Cytotoxicity in human HeLa cells assessed as reduction in cell viability incubated for 72 hrs by MTT assay; format: functional, cell-based
MDCK = assay: Cytotoxicity in canine MDCK cells assessed as reduction in cell viability incubated for 72 hrs by MTT assay; format: cell-based; conditions: Canis lupus familiaris
HepG2 [6] = assay: Cytotoxicity in human HepG2 cells assessed as reduction in cell viability incubated for 72 hrs by MTT assay; format: functional, cell-based; conditions: HepG2, 72 h
PC-3 = assay: Cytotoxicity in human PC3 cells assessed as reduction in cell viability incubated for 96 hrs by SRB assay; format: functional, cell-based; conditions: PC-3, 96 h
4T1 = assay: Cytotoxicity in mouse 4T1 cells assessed as reduction in cell viability incubated for 96 hrs by SRB assay; format: functional, cell-based; conditions: 4T1, 96 h
HCT-116 = assay: Cytotoxicity in human HCT116 cells assessed as reduction in cell viability incubated for 96 hrs by SRB assay; format: functional, cell-based; conditions: HCT-116, 96 h
MCF7 [7] = assay: Cytotoxicity in human MCF7 cells assessed as reduction in cell viability incubated for 24 hrs by MTT assay; format: functional, cell-based; conditions: MCF7, 24 h
TERT-RPE1 = assay: Cytotoxicity in human hTERT-RPE1 cells assessed as reduction in cell viability incubated for 24 hrs by MTT assay; format: functional, cell-based; conditions: RPE-1, 24 h
MDA-MB-231 [8] = assay: Cytotoxicity in human MDA-MB-231 cells assessed as reduction in cell viability incubated for 96 hrs by SRB assay; format: functional, cell-based; conditions: MDA-MB-231, 96 h
DU-145 = assay: Cytotoxicity in human DU145 cells assessed as reduction in cell viability incubated for 96 hrs by SRB assay; format: functional, cell-based; conditions: DU-145, 96 h
CT26 = assay: Cytotoxicity in mouse CT26 cells assessed as reduction in cell viability incubated for 96 hrs by SRB assay; format: functional, cell-based; conditions: CT26, 96 h
HT-29 [9] = assay: Cytotoxicity in human HT-29 cells assessed as reduction in cell viability incubated for 96 hrs by SRB assay; format: functional, cell-based; conditions: HT-29, 96 h
MDA-MB-231 [10] = assay: Cytotoxicity in human MDA-MB-231 cells assessed as reduction in cell viability incubated for 24 hrs by MTT assay; format: functional, cell-based; conditions: MDA-MB-231, 24 h
HCT-8 = assay: Cytotoxicity in human HCT8 cells assessed as reduction in cell viability incubated for 96 hrs by SRB assay; format: functional, cell-based; conditions: HCT-8, 96 h
Bel-7402 = assay: Cytotoxicity in human Bel7402 cells assessed as reduction in cell viability incubated for 72 hrs by MTT assay; format: functional, cell-based; conditions: Bel-7402, 72 h
H4 = assay: Cytotoxicity in human H4 cells assessed as reduction in cell viability incubated for 72 hrs by MTT assay; format: functional, cell-based; conditions: H4, 72 h
MCF7 [11] = assay: Cytotoxicity in human MCF7 cells assessed as reduction in cell viability incubated for 48 hrs by SRB assay; format: functional, cell-based; conditions: MCF7, 48 h
MDA-MB-231 [12] = assay: Cytotoxicity in human MDA-MB-231 cells assessed as reduction in cell viability incubated for 48 hrs by SRB assay; format: functional; conditions: MDA-MB-231, 48 h

Row | SMILES | IC50 (EA.hy 926) | IC50 (HT-29 [4]) | IC50 (H9c2) | IC50 (HeLa [5]) | IC50 (MDCK) | IC50 (HepG2 [6]) | IC50 (Bel-7402) | IC50 (H4) | further results
1 | CC(=O)O[C@H]1CC[C@]2(C)[C@H]3CC=C4[C@@H]5[C@@H](C)[C@H](C)CC[C@]5(C(=O)NCCN)CC[C@@]4(C)[C@]3(C)CC[C@H]2C1(C)C | – | – | – | – | – | – | – | – | IC50 (HeLa [1]): 4.4 µM; IC50 (HepG2 [2]): 16.3 µM; IC50 (AGS): 14.5 µM; IC50 [3]: 18.1 µM
2 | C[C@H]1[C@H](C)CC[C@]2(C(=O)NCCN)CC[C@]3(C)C(=CC[C@@H]4[C@@]5(C)CC[C@H](O)C(C)(C)[C@@H]5CC[C@]43C)[C@H]12 | – | – | – | – | – | – | – | – | IC50 (HeLa [1]): 14.6 µM; IC50 (HepG2 [2]): 13.9 µM; IC50 (AGS): 17.7 µM; IC50 [3]: 15.4 µM
3 | COc1cc(/C=C/C(=O)O[C@H]2CC[C@]3(C)[C@H]4C(=O)C=C5[C@H]6C[C@@](C)(C(=O)O)CC[C@]6(C)CC[C@@]5(C)[C@]4(C)CC[C@H]3C2(C)C)cc(OC)c1OC | 30.8 µM | 25.5 µM | 47.4 µM | 30.7 µM | 27.7 µM | 21.9 µM | – | – | –
4 | COc1ccc(OC)c(/C=C/C(=O)O[C@H]2CC[C@]3(C)[C@H]4C(=O)C=C5[C@H]6C[C@@](C)(C(=O)O)CC[C@]6(C)CC[C@@]5(C)[C@]4(C)CC[C@H]3C2(C)C)c1 | 45.1 µM | 26.4 µM | > 50 µM | 28 µM | > 50 µM | 25.4 µM | – | – | –
5 | COc1ccccc1/C=C/C(=O)O[C@H]1CC[C@]2(C)[C@H]3C(=O)C=C4[C@H]5C[C@@](C)(C(=O)O)CC[C@]5(C)CC[C@@]4(C)[C@]3(C)CC[C@H]2C1(C)C | > 50 µM | 22.2 µM | > 50 µM | 24.6 µM | 22.9 µM | 32 µM | – | – | –
6 | COc1cccc(/C=C/C(=O)O[C@H]2CC[C@]3(C)[C@H]4C(=O)C=C5[C@H]6C[C@@](C)(C(=O)O)CC[C@]6(C)CC[C@@]5(C)[C@]4(C)CC[C@H]3C2(C)C)c1 | 31 µM | 14.9 µM | > 50 µM | 17.5 µM | 22.2 µM | 12.7 µM | – | – | –
7 | CC1(C)[C@@H](OC(=O)/C=C/c2ccccc2)CC[C@]2(C)[C@H]3C(=O)C=C4[C@H]5C[C@@](C)(C(=O)O)CC[C@]5(C)CC[C@@]4(C)[C@]3(C)CC[C@@H]12 | 28.9 µM | 22.3 µM | 46.1 µM | 23.7 µM | 22.6 µM | 24.4 µM | – | – | –
8 | C[C@H]1[C@H](C)CC[C@]2(C(=O)NCCCCCCN)CC[C@]3(C)C(=CC[C@@H]4[C@@]5(C)CC[C@H](O)C(C)(C)[C@@H]5CC[C@]43C)[C@H]12 | – | – | – | – | – | – | – | – | IC50 (HeLa [1]): 13.3 µM; IC50 (HepG2 [2]): 13.4 µM; IC50 (AGS): 16.6 µM; IC50 [3]: 12.4 µM
9 | COc1cccc(/C=C/C(=O)O[C@H]2CC[C@]3(C)[C@H]4C(=O)C=C5[C@H]6C[C@@](C)(C(=O)O)CC[C@]6(C)CC[C@@]5(C)[C@]4(C)CC[C@H]3C2(C)C)c1OC | 25 µM | 24.4 µM | > 50 µM | 22.5 µM | 33.7 µM | 24.4 µM | – | – | –
10 | COc1ccc(/C=C/C(=O)O[C@H]2CC[C@]3(C)[C@H]4C(=O)C=C5[C@H]6C[C@@](C)(C(=O)O)CC[C@]6(C)CC[C@@]5(C)[C@]4(C)CC[C@H]3C2(C)C)cc1 | > 50 µM | 33 µM | 36.1 µM | 23.4 µM | 21.7 µM | 31.2 µM | – | – | –
11 | Cc1ccc(/C=C/C(=O)O[C@H]2CC[C@]3(C)[C@H]4C(=O)C=C5[C@H]6C[C@@](C)(C(=O)O)CC[C@]6(C)CC[C@@]5(C)[C@]4(C)CC[C@H]3C2(C)C)cc1 | 27.6 µM | 21.7 µM | > 50 µM | 14.2 µM | 38 µM | 22.1 µM | – | – | –
12 | COc1ccc(/C=C/C(=O)O[C@H]2CC[C@]3(C)[C@H]4C(=O)C=C5[C@H]6C[C@@](C)(C(=O)O)CC[C@]6(C)CC[C@@]5(C)[C@]4(C)CC[C@H]3C2(C)C)c(OC)c1OC | 27.7 µM | 15 µM | > 50 µM | 8.54 µM | 31.8 µM | 21.5 µM | – | – | –
13 | C[C@H]1[C@H](C)CC[C@]2(C(=O)NCCCCN)CC[C@]3(C)C(=CC[C@@H]4[C@@]5(C)CC[C@H](O)C(C)(C)[C@@H]5CC[C@]43C)[C@H]12 | – | – | – | – | – | – | – | – | IC50 (HeLa [1]): 14.5 µM; IC50 (HepG2 [2]): 14.4 µM; IC50 (AGS): 17.5 µM; IC50 [3]: 15 µM
14 | CC1(C)[C@@H](O)CC[C@]2(C)[C@H]3C(=O)C=C4[C@H]5C[C@@](C)(C(=O)O)CC[C@]5(C)CC[C@@]4(C)[C@]3(C)CC[C@@H]12 | > 100 µM | > 50 µM | > 100 µM | > 50 µM | > 100 µM | > 50 µM | – | – | IC50 (PC-3): 88 µM; IC50 (4T1): 96.2 µM; IC50 (HCT-116): 75.1 µM; IC50 (MCF7 [7]): 75.7 µM; IC50 (TERT-RPE1): 63.4 µM; IC50 (MDA-MB-231 [8]): 101 µM; IC50 (DU-145): 136 µM; IC50 (CT26): 70.5 µM; IC50 (HT-29 [9]): 77.2 µM; IC50 (MDA-MB-231 [10]): 84.7 µM; IC50 (HCT-8): 82.2 µM
15 | Cc1c(O)c(O)cc2c1C(c1c[nH]c3cc(Cl)ccc13)C=C1C2(C)CC[C@@]2(C)[C@H]3C[C@](C)(C(=O)O)CC[C@]3(C)CC[C@]12C (single isomer, unassigned) | – | – | – | – | – | – | 6.53 µM | 7.83 µM | –
16 | COC(=O)[C@]1(C)CC[C@]2(C)CC[C@]3(C)C4=CC(c5c[nH]c6cc(C)ccc56)c5c(cc(OC)c(OC)c5C)C4(C)CC[C@@]3(C)[C@H]2C1 (single isomer, unassigned) | – | – | – | – | – | – | 0.02 µM | 7.88 µM | –
17 | CC(=O)Nc1ccc(SC2C=C3C(C)(CC[C@@]4(C)[C@@H]5C[C@](C)(C(=O)O)CC[C@]5(C)CC[C@]34C)c3cc(OC(C)=O)c(OC(C)=O)c(C)c32)cc1 (single isomer, unassigned) | – | – | – | – | – | – | 0.46 µM | 0.35 µM | –
18 | COC(=O)[C@]1(C)CC[C@]2(C)CC[C@]3(C)C4=CC(c5c[nH]c6ccc(OC)cc56)c5c(cc(OC)c(OC)c5C)C4(C)CC[C@@]3(C)[C@H]2C1 (single isomer, unassigned) | – | – | – | – | – | – | 0.51 µM | 4.59 µM | –
19 | COc1ccc2[nH]cc(C3C=C4C(C)(CC[C@@]5(C)[C@H]6C[C@](C)(C(=O)O)CC[C@]6(C)CC[C@]45C)c4cc(O)c(O)c(C)c43)c2c1 (single isomer, unassigned) | – | – | – | – | – | – | 45.4 µM | 24.4 µM | –
20 | Cc1ccc2c(C3C=C4C(C)(CC[C@@]5(C)[C@H]6C[C@](C)(C(=O)O)CC[C@]6(C)CC[C@]45C)c4cc(O)c(O)c(C)c43)c[nH]c2c1 (single isomer, unassigned) | – | – | – | – | – | – | 5.52 µM | 6.66 µM | –
21 | CC(=O)Oc1cc2c(c(C)c1OC(C)=O)C(Sc1ccc(C)cc1)C=C1C2(C)CC[C@@]2(C)[C@@H]3C[C@](C)(C(=O)O)CC[C@]3(C)CC[C@]12C (single isomer, unassigned) | – | – | – | – | – | – | 0.45 µM | 0.37 µM | –
22 | CC(=O)CC1C=C2C(C)(CC[C@@]3(C)[C@@H]4C[C@](C)(C(=O)O)CC[C@]4(C)CC[C@]23C)c2cc(OC(C)=O)c(OC(C)=O)c(C)c21 (single isomer, unassigned) | – | – | – | – | – | – | > 150 µM | > 150 µM | –
23 | COC(=O)[C@]1(C)CC[C@]2(C)CC[C@]3(C)C4=CC(c5cn(C)c6cc(Cl)ccc56)c5c(cc(OC)c(OC)c5C)C4(C)CC[C@@]3(C)[C@H]2C1 (single isomer, unassigned) | – | – | – | – | – | – | 0.01 µM | 2.03 µM | –
24 | COc1cccc2c1C(=O)c1c(O)c3c(c(O)c1C2=O)C[C@@](O)(C(=O)CO)C[C@@H]3O[C@H]1C[C@H](N)[C@H](O)[C@H](C)O1 [DOXORUBICIN] | – | – | – | – | – | – | – | – | GI50 (MCF7 [11]): 5.7 µM; GI50 (MDA-MB-231 [12]): 4.1 µM; IC50 (MCF7 [7]): 0.49 µM; IC50 (TERT-RPE1): 2.76 µM
